Key:
[1] = Solubility test of ionic liquid in fluorine-based solvent VERTREL XF; conditions: for Solubility to fluorine-based solvent: VERTREL XF [CF3(CHF)2CF2CF3], 25° C., ultrasonic 5 minutes, left 1 day, visual; for Dissolved or not in fluorine-based solvent: VERTREL XF
Experimental: A solubility test was performed on the ionic liquid synthesized each of Examples and each of Comparative Examples using VERTREL XF [CF3(CHF)2CF2CF3] available from Du Pont-Mitsui Fluorochemicals Company, Ltd. as a fluorine-based solvent.
The ionic liquid was added to the predetermined mass of VERTREL XF.
Specifically, 0.5 parts by mass or 0.1 parts by mass of each ionic liquid was added to 100 parts by mass of VERTREL XF (25° C.).
Note that, a case where the mixture was visually observed to be transparent, the ionic liquid was judged as being dissolved. A case where the mixture was not transparent or insoluble matter was observed, the ionic liquid was judged as not being dissolved (insoluble).
The ionic liquid was dissolved when 0.5 parts by mass of the ionic liquid was added.
The ionic liquid was not dissolved when 0.5 parts by mass of the ionic liquid was added, but the ionic liquid was dissolved when 0.1 parts by mass of the ionic liquid was added.
The ionic liquid was not dissolved both when 0.5 parts by mass of the ionic liquid was added and when 0.1 parts by mass of the ionic liquid was added.

[2] = Thermal stability measurement (TG/DTA weight reduction temperature); conditions: for Weight reduction temperature 5% / Weight reduction temperature 10% / Weight reduction temperature 20%: TG/DTA, air 200 mL/min, 10° C./min, 30° C. to 600° C.
[3] = in acetonitrile; cited from earlier work

Compound	Solubility to fluorine-based solvent [1]	Weight reduction temperature 5% [2] [°C]	Weight reduction temperature 10% [2] [°C]	Weight reduction temperature 20% [2] [°C]	pKa of acid that is a source of the conjugate base [3]	other results
CCCCCCCCCCCCCCCCCC[N+]1=C2CCCCCN2CCC1.O=S(=O)([N-]S(=O)(=O)C(F)(F)C(F)(F)C(F)(F)C(F)(F)F)C(F)(F)C(F)(F)C(F)(F)C(F)(F)F [Ex. 2A, bis(nonafluorobutanesulfonyl)imide-8-octadecyl-1,8-diazabicyclo[5.4.0]-7-undecenium]	0.5% by mass or greater	341.1	372.9	396.3	–	Solubility to fluorine-based solvent ([1]; listed as Example 2A): ≥ 0.5 % by mass; Thermal stability improved compared with perfluoropolyether Z-DOL or Z-TETRAOL by ([2]; difference to Z-DOL or Z-TETRAOL): ≥ 100 °C
CCCCCCCCCCCCCCCCCC[N+]1(CCCC)CCCC1.O=S(=O)([N-]S(=O)(=O)C(F)(F)C(F)(F)C(F)(F)C(F)(F)F)C(F)(F)C(F)(F)C(F)(F)C(F)(F)F [Ex. 4A, bis(nonafluorobutanesulfonyl)imide-N-butyl-N-octadecylpyrrolidinium]	0.5% by mass or greater	331.4	360.2	382.5	–	Dissolved or not in fluorine-based solvent [1]: could be dissolved; Solubility to fluorine-based solvent ([1]; listed as Example 4A): ≥ 0.5 % by mass
CCCCCCCCCCCCCCCCCCN1CCCC1.O=S(=O)(NS(=O)(=O)C(F)(F)C(F)(F)C(F)(F)C(F)(F)F)C(F)(F)C(F)(F)C(F)(F)C(F)(F)F [Ex. 5A, bis(nonafluorobutanesulfonyl)imide-N-octadecylpyrrolidinium]	0.5% by mass or greater	312.6	334.4	355.5	–	Dissolved or not in fluorine-based solvent [1]: could be dissolved; Solubility to fluorine-based solvent ([1]; listed as Example 5A): ≥ 0.5 % by mass
C[n+]1ccn(CCC(F)(F)C(F)(F)C(F)(F)C(F)(F)C(F)(F)C(F)(F)C(F)(F)C(F)(F)F)c1.O=S(=O)([N-]S(=O)(=O)C(F)(F)C(F)(F)C(F)(F)C(F)(F)F)C(F)(F)C(F)(F)C(F)(F)C(F)(F)F [Ex. 9A, bis(nonafluorobutanesulfonyl)imide-1-1′H,1′H,2′H,2′H-heptadecafluorodecyl-3-methylimidazolium]	0.5% by mass or greater	350.3	365.5	381.3	–	Solubility to fluorine-based solvent ([1]; listed as Example 9A): ≥ 0.5 % by mass
O=S(=O)(NS(=O)(=O)C(F)(F)C(F)(F)C(F)(F)C(F)(F)F)C(F)(F)C(F)(F)C(F)(F)C(F)(F)F [bis(nonafluorobutanesulfonyl)imide]	–	–	–	–	0.0	–
O=S(=O)(O)C(F)(F)C(F)(F)C(F)(F)C(F)(F)C(F)(F)C(F)(F)C(F)(F)C(F)(F)F [heptadecafluorooctane sulfonic acid]	–	–	–	–	0.7	–
O=S1(=O)NS(=O)(=O)C(F)(F)C(F)(F)C1(F)F [hexafluorocyclopropane-1,3-bis(sulfonyl)imide]	–	–	–	–	−0.8	–
F[B-](F)(F)F.[H+] [tetrafluoroboric acid]	–	–	–	–	1.8	–
O=S(=O)(C(S(=O)(=O)C(F)(F)F)S(=O)(=O)C(F)(F)F)C(F)(F)F [tris(trifluoromethanesulfonyl)methide]	–	–	–	–	−3.7	–
bis(nonafluorobutanesulfonyl)imide-6-octadecyl-1,8-diazabicyclo[5.4.0]-7-undecene [Ex. 1A]	0.5% by mass or greater	352.9	378.2	396.7	–	Solubility to fluorine-based solvent ([1]; listed as Example 1A): ≥ 0.5 % by mass
